For 14 compounds, TGI and GI50 results are on record in PubChem BioAssay (NCI).

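Following 48 hours of exposure in 96-well plates, responses at five concentrations were used to interpolate endpoints linearly. At the GI50, growth is halved. TGI is the concentration that stops growth completely.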

Some test systems named below: OVCAR-4 ovarian; UACC-62 melanoma; DU-145 prostate; U251 CNS; NCI-H522 lung; HCC-2998 colon; 786-0 renal; RXF 393 renal; SNB-19 CNS.
Common to all, as to experiment: DTP human tumour cell line panel, 48 h

Consider `CCn1c2ccc(C(=O)CCCN3CCCCC3)cc2c2cc(C(=O)CCCN3CCCCC3)ccc21`, for which the TGI in the assay with OVCAR-4 ovarian was 5.65 µM; in the assay on UACC-62 melanoma, 38.8 µM; in the assay with DU-145 prostate it was 18.2 µM; in the assay with U251 CNS, 4.73 µM; with NCI-H522 lung it was 4.05 µM; in the assay on HCC-2998 colon it was 23.8 µM. Besides, the TGI in the assay with 786-0 renal amounted to 2.78 µM; in the assay on RXF 393 renal, 7.31 µM; in the assay on SNB-19 CNS it was 10.6 µM.

In the case of `c1ccc2c(c1)Sc1nccc3ccnc-2c13`, the TGI in the assay with OVCAR-4 ovarian was more than 100 µM; in the assay on UACC-62 melanoma it was more than 100 µM; in the assay on DU-145 prostate it was more than 100 µM; in the assay with U251 CNS it was more than 100 µM; with NCI-H522 lung, 97.1 µM; in the assay on HCC-2998 colon it was more than 100 µM. Also, the TGI in the assay on 786-0 renal, in the assay with RXF 393 renal and in the assay on SNB-19 CNS was more than 100 µM throughout.

`COc1ccccc1CN=C1Nc2ccncc2S(=O)(=O)N1c1ccccc1`: the concentration for total growth inhibition (TGI) with OVCAR-4 ovarian, with UACC-62 melanoma, in the assay on DU-145 prostate, with U251 CNS, in the assay on NCI-H522 lung and with HCC-2998 colon was more than 100 µM throughout. Also, the concentration for total growth inhibition (TGI) in the assay with 786-0 renal, in the assay on RXF 393 renal and in the assay on SNB-19 CNS was more than 100 µM each time.

For the compound `CN(C)CCCNC(=O)c1cc(NC(=O)c2cc(NC(=O)CCCn3c4ccccc4c4ccccc43)cn2C)cn1C`, the TGI was 35.5 µM with OVCAR-4 ovarian; 23 µM with UACC-62 melanoma; 40.8 µM in the assay with DU-145 prostate; more than 62.2 µM in the assay with U251 CNS; more than 90.6 µM in the assay on NCI-H522 lung; 18.7 µM with HCC-2998 colon. In addition, the TGI in the assay on 786-0 renal was 28.7 µM; in the assay on RXF 393 renal, 37.8 µM; with SNB-19 CNS, 28.3 µM. Also, the GI50 in the assay with UACC-62 melanoma was 7.28 µM.

With `O=C(CCc1cc(O)cc(O)c1)NCCCNC(=O)CCc1cc(O)cc(O)c1`, the TGI with OVCAR-4 ovarian, in the assay with UACC-62 melanoma, with DU-145 prostate, in the assay on U251 CNS, in the assay on NCI-H522 lung and with HCC-2998 colon was more than 100 µM in each case. The TGI with 786-0 renal, in the assay with RXF 393 renal and in the assay with SNB-19 CNS was more than 100 µM in each case.

Consider `Nc1nc(Cl)cc(NCC2(O)CC2)n1`, for which the total growth inhibition concentration (TGI) in the assay with OVCAR-4 ovarian, in the assay with UACC-62 melanoma, in the assay with DU-145 prostate, with U251 CNS, with NCI-H522 lung and in the assay with HCC-2998 colon was more than 100 µM each time. In addition, the TGI in the assay with 786-0 renal, in the assay with RXF 393 renal and with SNB-19 CNS was more than 100 µM in each case.

As for `O=C1C=CC(=O)c2c(O)c(N3CCC[C@H]3CO)c(Cl)c(O)c21`, the concentration for total growth inhibition (TGI) in the assay with OVCAR-4 ovarian was 3.93 µM; in the assay on UACC-62 melanoma it was 4.88 µM; with DU-145 prostate it was more than 6.32 µM; in the assay with U251 CNS it was more than 10 µM; in the assay on NCI-H522 lung, 0.939 µM; in the assay on HCC-2998 colon, more than 6.61 µM. Further, the concentration for total growth inhibition (TGI) in the assay on 786-0 renal was 3.64 µM; with RXF 393 renal it was 3.46 µM; with SNB-19 CNS, more than 10 µM.

As to `CC1CCC2(NC1)OC1CC3C4CC=C5CC(OC6OC(CO)C(OC7OC(C)C(O)C(O)C7O)C(O)C6OC6OC(C)C(O)C(O)C6O)CCC5(C)C4CCC3(C)C1C2C` (configuration not stated), the TGI with OVCAR-4 ovarian worked out at 7.27 µM; in the assay on UACC-62 melanoma, 7.71 µM; with DU-145 prostate it was 8.61 µM; in the assay on U251 CNS, 9.37 µM; in the assay on NCI-H522 lung it was 3.43 µM; with HCC-2998 colon it was 4.72 µM. Also, the TGI in the assay on 786-0 renal was 3.72 µM; with RXF 393 renal it was 26.5 µM; in the assay on SNB-19 CNS, 28.3 µM.

With `COc1cc(C(=O)Oc2ccc3c(c2)OCO3)cc(OC)c1OC`, the TGI in the assay with OVCAR-4 ovarian, in the assay with UACC-62 melanoma, in the assay with DU-145 prostate, with U251 CNS, in the assay on NCI-H522 lung and with HCC-2998 colon was more than 100 µM each time. Also, the TGI with 786-0 renal, in the assay with RXF 393 renal and in the assay with SNB-19 CNS was more than 100 µM each time.

For `Cc1c(CN2CCN(C)CC2)c(CN2CCN(C)CC2)c(C)n1-c1ccc(Cl)cc1`, the TGI was more than 100 µM with OVCAR-4 ovarian; 33.9 µM in the assay with UACC-62 melanoma; more than 100 µM with DU-145 prostate; more than 100 µM in the assay on U251 CNS; 40.8 µM in the assay on NCI-H522 lung; more than 100 µM in the assay on HCC-2998 colon. Moreover, the TGI with 786-0 renal was 46.4 µM; in the assay on RXF 393 renal it was more than 100 µM; in the assay with SNB-19 CNS, more than 100 µM.

As for `COC(=O)C1C(C(=O)OC)C2(OC(c3ccc(Cl)cc3)=CC2=O)C12OC(c1ccc(Cl)cc1)=CC2=O` (configuration not stated), the TGI with OVCAR-4 ovarian was 64.1 µM; in the assay with UACC-62 melanoma, 32.8 µM; with DU-145 prostate it was more than 100 µM; with U251 CNS it was more than 100 µM; with NCI-H522 lung it was 36.1 µM; in the assay with HCC-2998 colon, 36.8 µM. Besides, the total growth inhibition concentration (TGI) was 41 µM with 786-0 renal, 33.2 µM with RXF 393 renal and more than 100 µM with SNB-19 CNS.

Consider `S=C(N/N=C\C(=N/NC(=S)N1CCCCC1)c1ccccc1)N1CCCCC1`, for which the TGI with OVCAR-4 ovarian stood at 3.43 µM; with UACC-62 melanoma it was 4.1 µM; in the assay with DU-145 prostate, 3.02 µM; in the assay with U251 CNS, 3.56 µM; with NCI-H522 lung, 3.77 µM; with HCC-2998 colon it was 3.9 µM. Further, the figures for the TGI in the assay with 786-0 renal, in the assay with RXF 393 renal and with SNB-19 CNS were 3.74 µM, 3.33 µM and 3.84 µM, respectively.

For `O=[N+]([O-])c1ccc(NC(=S)N=Nc2c(O)[nH]c3ccc([N+](=O)[O-])cc23)cc1`, the TGI came to 40.8 µM in the assay with OVCAR-4 ovarian; 49.1 µM in the assay with UACC-62 melanoma; 49 µM in the assay with DU-145 prostate; 50.8 µM in the assay with U251 CNS; 60.5 µM with NCI-H522 lung; 35.9 µM in the assay on HCC-2998 colon. The TGI in the assay on 786-0 renal was determined as 32.3 µM; with RXF 393 renal it was 37.1 µM; in the assay on SNB-19 CNS, 69.3 µM.

As to `C[C@]12CCC(=O)[C@@H](CCC3=CC(=O)C=CC3=O)[C@@H]1CCC2=O`, the concentration for total growth inhibition (TGI) is 53.2 µM with OVCAR-4 ovarian; 44.1 µM with UACC-62 melanoma; 40.8 µM in the assay on DU-145 prostate; more than 47.3 µM with U251 CNS; 5.64 µM with NCI-H522 lung; 31.4 µM with HCC-2998 colon. In addition, the TGI with 786-0 renal is 41.1 µM; with RXF 393 renal, 5.43 µM; in the assay on SNB-19 CNS it was more than 100 µM.
